# Source: patent publication US20250122219A1 (priority 2023, published 2025)
# Assay: Cytotoxicity assay in MT-4 cells
# Format: cell-based
# Conditions: human; uninfected MT-4 cells, 5 days incubation, Cell Titer Glo; read-out: MT4 CC50
# Description: Compounds were tested in a high-throughput 384-well assay format for their ability to inhibit the replication of HIV-1 (IIIB) in MT-4 cells. Compounds were serially diluted (1.3) in DMSO on 384-well polypropylene plates and further diluted 200-fold into complete RPMI media (10% FBS, 1% P/S) using the Biotek Micro Flow and Labcyte ECHO acoustic dispenser. Each plate contained up to 8 test compounds, with negative (No Drug Control) and 5 μM AZT positive controls. MT-4 cells were pre-infected with 10 μL of either RPMI (mock-infected) or a fresh 1:250 dilution of HIV-1 IIIB concentrated virus stock. Infected and uninfected MT-4 cells were further diluted in complete RPMI media and added to each plate using a Micro Flow dispenser. After 5 days incubation in a humidified and temperature controlled incubator (37° C.), Cell Titer Glo (Promega) was added to the assay plates and chemiluminescence read using an Envision plate-reader.
# Assays were performed as above except uninfected MT-4 cells were added to each well containing test compound. In addition, […] puromycin was added to the last column of each assay plate to assess a base level of cytotoxicity.
row,Structure (SMILES),CC50 at 5 days [µM]
1,"COC1=NO[C@@]2(CC[C@H](C)N3C[C@H]2n2cc(C(=O)NCc4ccc(F)cc4F)c(=O)c(OC(=O)C(C)C)c2C3=O)C1 [Example 48, (3′S,5S,7′R)-10′-((2,4-difluorobenzyl)carbamoyl)-3-methoxy-3′-methyl-1′,11′-dioxo-1′,4′,5′,11′-tetrahydro-3′H,4H,7′H-spiro[isoxazole-5,6′-[2,7]methanopyrido[1,2-a][1,4]diazonin]-12′-yl isobutyrate]",22.4
2,"CC1=NO[C@@]2(CC[C@H](C)N3C[C@H]2n2cc(C(=O)NCc4ccc(F)cc4F)c(=O)c(OC(=O)C(C)C)c2C3=O)C1 [Example 49, (3′S,5S,7′R)-10′-((2,4-difluorobenzyl)carbamoyl)-3,3′-dimethyl-1′,11′-dioxo-1′,4′,5′,11′-tetrahydro-3′H,4H,7′H-spiro[isoxazole-5,6′-[2,7]methanopyrido[1,2-a][1,4]diazonin]-12′-yl isobutyrate]",15.1
3,"CCC(C)C(=O)Oc1c2n(cc(C(=O)NCc3ccc(F)cc3F)c1=O)[C@@H]1CN(C2=O)[C@@H](C)CC[C@]12CC(OC)=NO2 (stereo partly drawn) [Example 50, (3′S,5S,7′R)-10′-((2,4-difluorobenzyl)carbamoyl)-3-methoxy-3′-methyl-1′,11′-dioxo-1′,4′,5′,11′-tetrahydro-3′H,4H,7′H-spiro[isoxazole-5,6′-[2,7]methanopyrido[1,2-a][1,4]diazonin]-12′-yl 2-methylbutanoate]",21.7
4,"CCC(C)C(=O)Oc1c2n(cc(C(=O)NCc3ccc(F)cc3F)c1=O)[C@@H]1CN(C2=O)[C@@H](C)CC[C@]12CC(C)=NO2 (stereo partly drawn) [Example 51, (3′S,5S,7′R)-10′-((2,4-difluorobenzyl)carbamoyl)-3,3′-dimethyl-1′,11′-dioxo-1′,4′,5′,11′-tetrahydro-3′H,4H,7′H-spiro[isoxazole-5,6′-[2,7]methanopyrido[1,2-a][1,4]diazonin]-12′-yl 2-methylbutanoate]",20
5,"CC1=NO[C@@]2(CC[C@H](C)N3C[C@H]2n2cc(C(=O)NCc4ccc(F)cc4F)c(=O)c(OC(=O)CCCC(=O)O)c2C3=O)C1 [Example 72, 5-(((3′S,5S,7′R)-10′-((2,4-difluorobenzyl)carbamoyl)-3,3′-dimethyl-1′,11′-dioxo-1′,4′,5′,11′-tetrahydro-3′H,4H,7′H-spiro[isoxazole-5,6′-[2,7]methanopyrido[1,2-a][1,4]diazonin]-12′-yl)oxy)-5-oxopentanoic acid]",10.8
6,"COC1=NO[C@@]2(CC[C@H](C)N3C[C@H]2n2cc(C(=O)NCc4ccc(F)cc4F)c(=O)c(OC(=O)CCCCCC(=O)O)c2C3=O)C1 [Example 74, 7-(((3′S,5S,7′R)-10′-((2,4-difluorobenzyl)carbamoyl)-3-methoxy-3′-methyl-1′,11′-dioxo-1′,4′,5′,11′-tetrahydro-3′H,4H,7′H-spiro[isoxazole-5,6′-[2,7]methanopyrido[1,2-a][1,4]diazonin]-12′-yl)oxy)-7-oxoheptanoic acid]",26.3
7,COC(=O)N[C@@H](C)C(=O)Oc1c2n(cc(C(=O)NCc3ccc(F)cc3F)c1=O)[C@@H]1CN(C2=O)[C@@H](C)CC[C@]12CC(OC)=NO2 [Example 78],16.2
8,COC(=O)N[C@@H](C)C(=O)Oc1c2n(cc(C(=O)NCc3ccc(F)cc3F)c1=O)[C@@H]1CN(C2=O)[C@@H](C)CC[C@]12CC(C)=NO2 [Example 79],19.5
9,"COC1=NO[C@@]2(CC[C@H](C)N3C[C@H]2n2cc(C(=O)NCc4ccc(F)cc4F)c(=O)c(OCOC(=O)C(C)C)c2C3=O)C1 [Example 108, (((3′S,5S,7′R)-10′-((2,4-difluorobenzyl)carbamoyl)-3-methoxy-3′-methyl-1′,11′-dioxo-1′,4′,5′,11′-tetrahydro-3′H,4H,7′H-spiro[isoxazole-5,6′-[2,7]methanopyrido[1,2-a][1,4]diazonin]-12′-yl)oxy)methyl isobutyrate]",21.7
10,"CC1=NO[C@@]2(CC[C@H](C)N3C[C@H]2n2cc(C(=O)NCc4ccc(F)cc4F)c(=O)c(OCOC(=O)C(C)C)c2C3=O)C1 [Example 109, (((3′S,5S,7′R)-10′-((2,4-difluorobenzyl)carbamoyl)-3,3′-dimethyl-1′,11′-dioxo-1′,4′,5′,11′-tetrahydro-3′H,4H,7′H-spiro[isoxazole-5,6′-[2,7]methanopyrido[1,2-a][1,4]diazonin]-12′-yl)oxy)methyl isobutyrate]",15.5
11,"COC(=O)Oc1c2n(cc(C(=O)NCc3ccc(F)cc3F)c1=O)[C@@H]1CN(C2=O)[C@@H](C)CC[C@]12CC(OC)=NO2 [Example 122, (03'S,5S,7′R)-10′-((2,4-difluorobenzyl)carbamoyl)-3-methoxy-3′-methyl-1′,11′-dioxo-1′,4′,5′,11′-tetrahydro-3′H,4H,7′H-spiro[isoxazole-5,6′-[2,7]methanopyrido[1,2-a][1,4]diazonin]-12′-yl methyl carbonate]",19.8
12,"CCCOC(=O)Oc1c2n(cc(C(=O)NCc3ccc(F)cc3F)c1=O)[C@@H]1CN(C2=O)[C@@H](C)CC[C@]12CC(C)=NO2 [Example 125, (3′S,5S,7′R)-10′-((2,4-difluorobenzyl)carbamoyl)-3,3′-dimethyl-1′,11′-dioxo-1′,4′,5′,11′-tetrahydro-3′H,4H,7′H-spiro[isoxazole-5,6′-[2,7]methanopyrido[1,2-a][1,4]diazonin]-12′-yl propyl carbonate]",18.5
13,"CCCOC(=O)Oc1c2n(cc(C(=O)NCc3ccc(F)cc3F)c1=O)[C@@H]1CN(C2=O)[C@@H](C)CC[C@]12CC(OC)=NO2 [Example 126, (3′S,5S,7′R)-10′-((2,4-difluorobenzyl)carbamoyl)-3-methoxy-3′-methyl-1′,11′-dioxo-1′,4′,5′,11′-tetrahydro-3′H,4H,7′H-spiro[isoxazole-5,6′-[2,7]methanopyrido[1,2-a][1,4]diazonin]-12′-yl propyl carbonate]",21.9
14,"CC1=NO[C@@]2(CC[C@H](C)N3C[C@H]2n2cc(C(=O)NCc4ccc(F)cc4F)c(=O)c(OC(=O)OCCCCCCC(C)C)c2C3=O)C1 [Example 158, (3′S,5S,7′R)-10′-((2,4-difluorobenzyl)carbamoyl)-3,3′-dimethyl-1′,11′-dioxo-1′,4′,5′,11′-tetrahydro-3′H,4H,7′H-spiro[isoxazole-5,6′-[2,7]methanopyrido[1,2-a][1,4]diazonin]-12′-yl (7-methyloctyl) carbonate]",16.8
15,"COC1=NO[C@@]2(CC[C@H](C)N3C[C@H]2n2cc(C(=O)NCc4ccc(F)cc4F)c(=O)c(OC(=O)OCCCCCCC(C)C)c2C3=O)C1 [Example 159, (3′S,5S,7′R)-10′-((2,4-difluorobenzyl)carbamoyl)-3-methoxy-3′-methyl-1′,11′-dioxo-1′,4′,5′,11′-tetrahydro-3′H,4H,7′H-spiro[isoxazole-5,6′-[2,7]methanopyrido[1,2-a][1,4]diazonin]-12′-yl (7-methyloctyl) carbonate]",35.9
16,"CCCCCCCCCCCCCCOC(=O)OCOc1c2n(cc(C(=O)NCc3ccc(F)cc3F)c1=O)[C@@H]1CN(C2=O)[C@@H](C)CC[C@]12CC(C)=NO2 [Example 192, (((3′S,5S,7′R)-10′-((2,4-difluorobenzyl)carbamoyl)-3,3′-dimethyl-1′,11′-dioxo-1′,4′,5′,11′-tetrahydro-3′H,4H,7′H-spiro[isoxazole-5,6′-[2,7]methanopyrido[1,2-a][1,4]diazonin]-12′-yl)oxy)methyl tetradecyl carbonate]",≥ 50
